In PubChem BioAssay AID330 (DTP/NCI, 2004):
“And” between values parts separate entries of the source, which are not always exact repeats. Equal values may be shown once. Toxic doses and inconclusive results are not listed.

Test system: P388 leukemia ip, CD2F1 mice, survival T/C
Assay: NCI In Vivo Anticancer Drug Screen. Data for tumor model P388 Leukemia (intraperitoneal) in CD2F1 (CDF1) mice
Conditions: endpoint: median survival time, higher = longer survival
Outline: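 Mice carrying the transplanted tumor received test compound or vehicle. Survival was recorded in each group, and the value is the treated-group measurement divided by that of the vehicle-treated control group.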

[1] = dose: 12.5 mg/kg/injection, schedule: Q01DX005 (ip), vehicle: saline with Tween-80
[2] = dose: 25.0 mg/kg/injection, schedule: Q01DX005 (ip), vehicle: saline with Tween-80
[3] = dose: 50.0 mg/kg/injection, schedule: Q01DX005 (ip), vehicle: saline with Tween-80

O=C(O)c1c2ccccc2nc2ccccc12
T/C [1]: 106 % of control and 93 % of control
T/C [2]: 100 % of control and 95 % of control
T/C [3]: 104 % of control and 113 % of control and 121 % of control

COC12[C@@H]3N[C@@H]3CN1C1=C(C(=O)C(NCCSSCCNC3=C(C)C(=O)C4=C(C3=O)C(COC(N)=O)[C@]3(OC)C5N[C@@H]5CN43)=C(C)C1=O)[C@@H]2COC(N)=O (stereo not given in full)
T/C (dose: 3.12 mg/kg/injection, schedule: Q01DX001 (ip), vehicle: DMSO): 157 % of control
T/C (dose: 6.25 mg/kg/injection, schedule: Q01DX001 (ip), vehicle: DMSO): 161 % of control
T/C (dose: 12.5 mg/kg/injection, schedule: Q01DX001 (ip), vehicle: DMSO): 177 % of control
T/C (dose: 25.0 mg/kg/injection, schedule: Q01DX001 (ip), vehicle: DMSO): 233 % of control

Nc1[nH]c(=O)ncc1-c1ccc([N+](=O)[O-])cc1
T/C [1]: 95 % of control
T/C [2]: 97 % of control
T/C [3]: 101 % of control and 105 % of control

O=C1c2ccccc2-c2c(NC(=O)C(Cl)Cl)cccc21
T/C (dose: 50.0 mg/kg/injection, schedule: Q01DX005 (ip), vehicle: Klucel (hydroxypropylcellulose) (HPC)): 87 % of control
T/C (dose: 100.0 mg/kg/injection, schedule: Q01DX005 (ip), vehicle: Klucel (hydroxypropylcellulose) (HPC)): 86 % of control
T/C (dose: 200.0 mg/kg/injection, schedule: Q01DX005 (ip), vehicle: Klucel (hydroxypropylcellulose) (HPC)): 86 % of control

CN(C)C(=O)CC(O)c1ccccc1 (stereo not given)
T/C (dose: 50.0 mg/kg/injection, schedule: Q01DX005 (ip), vehicle: saline): 102 % of control
T/C (dose: 100.0 mg/kg/injection, schedule: Q01DX005 (ip), vehicle: saline): 105 % of control
T/C (dose: 200.0 mg/kg/injection, schedule: Q01DX005 (ip), vehicle: saline): 100 % of control

CCOC(=O)c1ccc(NCCC(C)=O)cc1
T/C (dose: 50.0 mg/kg/injection, schedule: Q01DX009 (ip), vehicle: saline with Tween-80): 91 % of control
T/C (dose: 100.0 mg/kg/injection, schedule: Q01DX009 (ip), vehicle: saline with Tween-80): 86 % of control
T/C (dose: 200.0 mg/kg/injection, schedule: Q01DX009 (ip), vehicle: saline with Tween-80): 91 % of control
T/C (dose: 400.0 mg/kg/injection, schedule: Q01DX009 (ip), vehicle: saline with Tween-80): 95 % of control

CN(c1ccccc1)c1cc2c(cc1[N+](=O)[O-])no[n+]2[O-]
T/C (dose: 7.5 mg/kg/injection, schedule: Q01DX009 (ip), vehicle: saline): 100 % of control and 86 % of control and 97 % of control
T/C (dose: 15.0 mg/kg/injection, schedule: Q01DX009 (ip), vehicle: saline): 107 % of control and 94 % of control
T/C (dose: 30.0 mg/kg/injection, schedule: Q01DX009 (ip), vehicle: saline): 105 % of control and 95 % of control
T/C (dose: 60.0 mg/kg/injection, schedule: Q01DX009 (ip), vehicle: saline): 100 % of control and 101 % of control and 92 % of control

CCOC(=O)CC1(O)CSC(=C(C#N)C#N)S1 (stereo not given)
T/C [3]: 100 % of control
T/C (dose: 100.0 mg/kg/injection, schedule: Q01DX005 (ip), vehicle: saline with Tween-80): 100 % of control
T/C (dose: 200.0 mg/kg/injection, schedule: Q01DX005 (ip), vehicle: saline with Tween-80): 92 % of control

S=C(Nc1ccc(Br)cc1)SCc1ccco1
T/C (dose: 12.5 mg/kg/injection, schedule: Q01DX009 (ip), vehicle: saline): 106 % of control
T/C (dose: 25.0 mg/kg/injection, schedule: Q01DX009 (ip), vehicle: saline): 106 % of control
T/C (dose: 50.0 mg/kg/injection, schedule: Q01DX009 (ip), vehicle: saline): 100 % of control
T/C (dose: 50.0 mg/kg/injection, schedule: Q01DX009 (ip), vehicle: suspension in saline): 104 % of control
T/C (dose: 100.0 mg/kg/injection, schedule: Q01DX009 (ip), vehicle: suspension in saline): 93 % of control
T/C (dose: 200.0 mg/kg/injection, schedule: Q01DX009 (ip), vehicle: suspension in saline): 111 % of control

CC(=O)NC(=O)NC(C)=O
T/C (dose: 100.0 mg/kg/injection, schedule: Q01DX001 (ip), vehicle: methylcellulose (MC)): 100 % of control
T/C (dose: 200.0 mg/kg/injection, schedule: Q01DX001 (ip), vehicle: methylcellulose (MC)): 108 % of control
T/C (dose: 400.0 mg/kg/injection, schedule: Q01DX001 (ip), vehicle: methylcellulose (MC)): 100 % of control

Nc1ccc(S(=O)(=O)n2c(=O)oc3ccc(Br)cc32)cc1
T/C (dose: 100.0 mg/kg/injection, schedule: Q04DX002 (ip), vehicle: Klucel (hydroxypropylcellulose) (HPC)): 93 % of control
T/C (dose: 200.0 mg/kg/injection, schedule: Q04DX002 (ip), vehicle: Klucel (hydroxypropylcellulose) (HPC)): 90 % of control
T/C (dose: 400.0 mg/kg/injection, schedule: Q04DX002 (ip), vehicle: Klucel (hydroxypropylcellulose) (HPC)): 93 % of control

COc1cccc2c1C(=O)c1c(O)c3c(c(O)c1C2=O)C[C@@](O)(/C(C)=N\NC(=O)CCC(N)C(=O)O)C[C@@H]3OC1CC(N)C(O)C(C)O1 (stereo not given in full) (tested in a mixture with another compound)
T/C (dose: 18.75 mg/kg/injection, schedule: Q04DX003 (ip), vehicle: water): 121 % of control
T/C (dose: 75.0 mg/kg/injection, schedule: Q04DX003 (ip), vehicle: water): 121 % of control
T/C (dose: 300.0 mg/kg/injection, schedule: Q04DX003 (ip), vehicle: water): 163 % of control

CCC(CC)C[Se][Se]CC(CC)CC
T/C (dose: 6.25 mg/kg/injection, schedule: Q01DX009 (ip), vehicle: Klucel (hydroxypropylcellulose) (HPC)): 100 % of control
T/C (dose: 12.5 mg/kg/injection, schedule: Q01DX009 (ip), vehicle: Klucel (hydroxypropylcellulose) (HPC)): 101 % of control
T/C (dose: 25.0 mg/kg/injection, schedule: Q01DX009 (ip), vehicle: Klucel (hydroxypropylcellulose) (HPC)): 103 % of control
